The values that follow come from patent US6407099B1, “Arylpiperidinopropanol and arylpiperazinopropanol derivatives and pharmaceuticals containing the same” (Suntory Limited, priority 1997, dated 2002).

The test system of data set [1] is Sodium channel. Description: Inhibitory effect of veratrizine-induced sodium channel activity (synaptozome membrane potential, Rhodamine 6G). The class given is biochemical, Wistar rats. Particulars: compound 0.1 μM; rat brain synaptozomes, veratrizine-induced depolarization. From the text: Inhibitory Effect of Veratrizine-induced Sodium Channel Activity
The test system of data set [2] is lipid peroxidation. Description: Lipid peroxidation suppressing effect (brain membrane preparation, malonaldehyde and 4-hydroxyalkenals). The data set is classed as biochemical, Wistar rats. The settings on record: rat brain membrane preparation, 37° C., 30 minutes. How it is done:
Lipid Peroxidation Suppressing Effect
The whole brains of Wistar rats (10 weeks old, male) were excised and homogenized in the 10 times volumes of 50 mM phosphate-buffered solution (pH=7.4) (hereinafter referred to as PBS). The centrifuged supernatent was further diluted fourfold and the result was used as the brain membrane preparation. The membrane preparation was incubated in the presence of vehicle (0.5% DMSO) or compound at 37° C. for 30 minutes and an automatic oxidation reaction promoted. The reaction was stopped by 35% perchloric acid, then the total of the main decomposition products of the peroxidized lipids present in the centrifuged supernatent, that is, malonaldehyde and 4-hydroxyalkenals, was measured using a BIOXYTECH®/LPO-586™ peroxidized lipid colorimetric assay kit (OXIS International, Inc.) and used as an indicator of the lipid peroxidation.

Data set [3] in a line: Acute toxicity test. Particulars: male, mouse, in vivo, iv, ddY mice, death rate up to 24 hours after administration. On the procedure:
A pharmaceutical preparation was administered intravenously to ddY mice (male, 6 weeks old). The 50% lethal dosage LD50 of the acute toxicity was calculated by an ordinary method from the death rate up to 24 hours after administration.

The subject of data set [4] is T-type Ca^2+ channel. Description: T-type calcium channel inhibitory effect (whole-cell patch clamp, hippocampal CA1 pyramidal cells). The class given is cell-based, Wistar rats. The settings on record: rat hippocampal CA1 pyramidal cells; peak current after 1 minute of application. On the procedure:
T-Type Calcium Channel Inhibitory Effect
The hippocampal CA1 pyramidal cells were isolated from Wistar rats (female, 1 week old) in according to the method reported by Takahashi et al. [K. Takahashi et al.; J. Pharmacol. Exp. Ther., 256, 169 (1991)] and the T-type calcium current was measured under conditions of a fixed membrane potential using the whole-cell configuration of the patch clamp technique. The effects of the compounds were evaluated from the rate of suppression of the peak current after 1 minute of application using the concentration clamp method.
(In general: The patch-clamp technique gives a direct electrical read-out from membranes.)

For data set [5], the target named is T1, Dopamine D2 receptor (Rattus norvegicus, UniProt P61169).
T1 construct: membrane fraction prepared from the striatum of Wistar male rats; from tissue; host or cells: rat striatum membrane fraction
T1 sequence (P61169 whole entry): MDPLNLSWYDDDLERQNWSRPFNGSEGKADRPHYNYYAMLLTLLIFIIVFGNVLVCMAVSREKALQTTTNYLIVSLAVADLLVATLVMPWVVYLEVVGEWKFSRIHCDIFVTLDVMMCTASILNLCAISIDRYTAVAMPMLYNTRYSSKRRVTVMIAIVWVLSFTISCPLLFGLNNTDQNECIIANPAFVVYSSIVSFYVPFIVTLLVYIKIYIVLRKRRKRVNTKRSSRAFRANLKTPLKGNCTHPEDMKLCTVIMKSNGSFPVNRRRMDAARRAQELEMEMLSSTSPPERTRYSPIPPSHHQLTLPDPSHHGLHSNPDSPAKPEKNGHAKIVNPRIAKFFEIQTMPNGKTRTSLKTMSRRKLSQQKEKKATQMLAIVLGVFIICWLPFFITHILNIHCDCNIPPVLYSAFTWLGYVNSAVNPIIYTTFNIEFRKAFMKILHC
The experiment in a line: Dopamine D2 receptor blocking action ([^3H] raclopride, striatum membrane fraction). The settings on record: 1.0 nM [^3H] raclopride, 25° C., 1 hour. The class given is binding, Wistar male rats. On the procedure: Dopamine D2 Receptor Blocking Action
57 μl of the membrane fraction prepared from the striatum of Wistar male rats (6 weeks old) was incubated together with the compound and 1.0 nM [^3H] raclopride in a buffer at 25° C. for 1 hour. A GF/C glass filter (0.1% polyethylene imine treatment) was used for B/F separation. A beta plate was used for measurement of the radioactivity to evaluate the effect of the compound.

For data set [6], the system named is DBA/2N type mice. Description: Audiogenic seizure suppressing effect. The data set is classed as in vivo. Particulars: Mus musculus, ip, 20 min, compound 10 mg/kg, i.p.; audio stimulus after 20 minutes; seizure score; read-out: Antiseizure effect (suppression rate %). On the procedure:
Audiogenic Seizure Suppressing Effect
The audiogenic seizure suppressing effect of the compounds was evaluated by the method of Sarro et al. [G. B. De Sarro et al., Br. J. Pharmacol., 93, 247 (1988)]. That is, the compound dissolved in 10% 2-hydroxypropyl-β-cyclodextrin was administered intraperitoneally to DBA/2N type mice (male, 3 weeks old). After 20 minutes, a supersonic washer was used to apply audio stimulus of at least 90 dB for 1 minute. The wild running (WR), clonic seizures (clonus), tonic seizures (tonus), and the respiratory arrest (RA) were observed. The seizure suppressing effect was evaluated from the rate of suppression of the average value of the seizure score found as 0=no response, 1=WR, 2=clonus, 3=tonus, and 4=RA.

`COc1ccc(N)cc1OC[C@@H](O)CN1CCC(c2ccc(Oc3ccccc3)cc2)CC1` [Compound 41, (2S)-1-[(5-amino-2-methoxy)phenoxy]-3-[4-(4-phenoxyphenyl)piperidin-1-yl]-2-propanol]: the “Anti-veratrizine effect (inhibiting rate %)” value in data set [1] came to 22.1%. Besides, the IC50 in data set [2] stood at 0.87 µM; in data set [4], 4 µM; in data set [5] it was 11 µM. In data set [3], this compound returned a median lethal dose (LD50) at 24 h of 36.7 mg/kg. The inhibition in vivo at 10 mg/kg in data set [6] came to 60%.
As to `Cc1cc(OC[C@@H](O)CN2CCC(c3ccc(Cc4ccc(F)cc4)cc3)CC2)c(C)c(C)c1N` [Compound 27, (2S)-1-[(4-amino-2,3,5-trimethyl)phenoxy]-3-[4-(4-(4-fluorophenyl)methylphenyl)piperidin-1-yl]-2-propanol], the “Anti-veratrizine effect (inhibiting rate %)” value in data set [1] amounted to 32.1%. Also, the IC50 in data set [2] was 0.46 µM; in data set [5], 6.3 µM. Moreover, the inhibition in vivo at 10 mg/kg in data set [6] was found to be 55%.

As a reminder, the IC50 is the concentration at which inhibition is half-maximal. As a reminder, the LD50 is the dose expected to kill half of the subjects tested. High values mean a less toxic substance, low ones a more toxic substance.
